The structures appear in SMILES notation.

In the first assay the target is T1, MeCP2-TBL1 interaction (MeCP2-SmBiT / TBL1-LgBiT) (Mus musculus, UniProt Q9QXE7).
T1 construct: expressed in transfected cells; crude lysate used as a cell-free assay
T1 sequence (Q9QXE7 166-527): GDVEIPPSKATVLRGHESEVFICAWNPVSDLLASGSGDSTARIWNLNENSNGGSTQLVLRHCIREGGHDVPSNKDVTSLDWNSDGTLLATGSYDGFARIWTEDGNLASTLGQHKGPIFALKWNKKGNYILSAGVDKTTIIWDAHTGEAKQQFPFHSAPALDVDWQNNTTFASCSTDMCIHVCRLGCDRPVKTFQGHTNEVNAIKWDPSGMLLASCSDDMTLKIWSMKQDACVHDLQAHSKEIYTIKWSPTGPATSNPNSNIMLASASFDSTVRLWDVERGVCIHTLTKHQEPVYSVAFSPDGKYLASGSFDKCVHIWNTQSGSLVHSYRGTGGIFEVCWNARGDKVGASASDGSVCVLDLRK
As to the kind of experiment: MeCP2-TBL1 NanoLuc luciferase complementation assay (cell-free, extracts of transfected HEK293 cells).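 Also: each compound tested at 20 µM final concentration.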 Type of assay: binding, human. To be noted: primary screen of Asinex library, single well per compound. An outline of the steps:
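Cell-free split NanoLuc: lysate of HEK293 cells co-expressing the MeCP2 C-terminal half-SmBiT and TBL1 WD domain-LgBiT, mixed 1:1 with furimazine. After 30 min at room temperature, luminescence was plate-median normalized.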
`CC(C)(NC(=O)COc1ccccc1)C(=O)N1CCC(Cc2cccc3ncccc23)CC1` [BDH_32354908]: the Inhibition percent was -2.23.

Take `Cc1nonc1COc1ccccc1C(=O)N1C2CCC1CC(Cc1cnc3ccccc3c1)C2` (stereo not drawn) [BDH_32356179]: the Inhibition percent is 3.35.

In the case of `Cc1cc(C)n(-c2cccc(C(=O)N3CCCC(c4cncc(Oc5ccccc5)n4)C3)c2)n1` (stereo not drawn) [BDH_32356802], the Inhibition percent is -1.24.

With `O=C(c1cccc(Nc2ncccn2)c1)N1C2CCC1CC(Cc1ccc3ccncc3c1)C2` (stereo not drawn) [BDH_32356948], the Inhibition percent is on record as 3.03.

Consider `O=C1OC2(CCCN(Cc3ccccc3OCc3ccccn3)CC2)CN1c1ccc(F)cc1` (stereo not drawn) [BDH_32357695], for which the Inhibition percent was found to be 1.61.

Consider `O=C1CCCN1CCOc1cccc(C(=O)N2CCCC(Cc3ccnc4ccccc34)CC2)c1` (stereo not drawn) [BDH_32358595], for which the Inhibition percent was -2.39.

For the compound `COc1ccc(C(=O)N2CCCC(Cc3cccc4ncccc34)C2)cc1NCc1ccncc1` (stereo not drawn) [BDH_32359947], the Inhibition percent was -3.52.

Turning to `Cn1cc(C(=O)Nc2cccc(C(=O)N3CCCC(Cc4cnc5ccccc5c4)CC3)c2)cn1` (stereo not drawn) [BDH_32361063], the Inhibition percent is on record as -0.14.

With `C[C@]12C[C@@H](c3ccc(F)cc3)N(C(=O)c3cccc(Oc4ncccn4)c3)[C@H]1CCCCC(=O)N2` [BDH_32362535], the Inhibition percent is recorded as -1.66.

As to `Cc1ccc(C(=O)N2CCC3(CC2)COC(Cc2cccc(F)c2)C3)cc1NCc1ccccn1` (stereo not drawn) [BDH_32362747], the Inhibition percent stood at 0.11.

On to `Cc1cc(C(=O)N2CCC(Cc3cccc4cccnc34)CC2)nc(C2(C)CCN(C)CC2)n1` [BDH_32363559], for which the Inhibition percent is given as -3.40.

For `O=C(c1cccc(Nc2ncccn2)c1)N1CCC2(CC1)COC(Cc1cccc(F)c1)C2` (stereo not drawn) [BDH_32363979], the Inhibition percent came out at 9.41.

In the case of `Cc1cc(Oc2ccc(F)cc2)nc(C2CCCCN2C(=O)c2cccc(-n3cnnc3)c2)n1` (stereo not drawn) [BDH_32364593], the Inhibition percent is reported as -1.56.

As for `Cc1cc(Oc2ccc(F)cc2)nc(C2CCCCN2C(=O)c2cccc(-c3cncnc3)n2)n1` (stereo not drawn) [BDH_32364853], the Inhibition percent is -0.96.

`CC(=O)N[C@@]12CN(C)CC[C@@H]1[C@@H](c1ccccc1)N(C(=O)c1cccc(-n3nc(C)cc3C)c1)C2` [BDH_32365020]: the Inhibition percent is -3.43.

Turning to `CN1CCN(c2cc(C(=O)N3CCC(O)(CN4CCN(c5ccccc5)CC4)C3)ccn2)CC1` (stereo not drawn) [BDH_32365527], the Inhibition percent is listed as -1.97.

Staying with this assay, now noted: primary screen of the Asinex library, sheet "Sargen output Asinex library", one well per compound.
In the case of `CN1CCC(Cc2cccc(F)c2)(C(=O)N2CCC(Cc3cccc4cccnc34)CC2)CC1` [BDH_32354499], the Inhibition percent is listed as -1.74%.

For the compound `CN1CCC(Cc2ccc(F)cc2)(C(=O)N2CCC(Cc3cccc4cccnc34)CC2)CC1` [BDH_32354505], the Inhibition percent is -1.95%.

In the case of `O=C(CC1CCN(C(=O)C2(c3ccc(F)cc3)CCCC2)CC1)Nc1ccc2nccnc2c1` [BDH_32356175], the Inhibition percent turned out to be 0.45%.

Take `O=C(NCCC1CCCCN1C(=O)c1ccnc(Oc2cccc(F)c2)c1)c1ccccc1` (stereo not drawn) [BDH_32356851]: the Inhibition percent is listed as -4.31%.

Consider `CN1CCCC(CCCc2cnccn2)(C(=O)N2CCC(Cc3cccc4cccnc34)CC2)C1` (stereo not drawn) [BDH_32356918], for which the Inhibition percent is reported as -2.36%.

As to `Cc1ccc(Oc2cc(C)nc(C3CCCCN3C(=O)c3ccnc(-c4cnn(C)c4)c3)n2)cc1` (stereo not drawn) [BDH_32357088], the Inhibition percent is reported as 0.88%.

Regarding `O=C(c1ccccc1OCCN1CCOCC1)N1CCCC(Cc2ccc3ncccc3c2)C1` (stereo not drawn) [BDH_32358044], the Inhibition percent is on record as -2.19%.

In the case of `Cc1cc(Oc2ccccc2)nc(C2CCN(C(=O)c3ccnc(N4CCN(C)CC4)c3)CC2)n1` [BDH_32358107], the Inhibition percent is listed as -1.62%.

Take `O=C1CCCC[C@]2(CN(Cc3ccccc3OCc3ccccn3)C[C@H]2c2ccc(F)cc2)N1` [BDH_32358404]: the Inhibition percent is 1.07%.

With `O=C1CCCN1CCOc1cccc(C(=O)N2CCCC(Cc3cnc4ccccc4c3)CC2)c1` (stereo not drawn) [BDH_32358596], the Inhibition percent is -12.20%.

Regarding `O=C1CCCN1CCOc1ccccc1C(=O)N1CCCC(Cc2ccc3ncccc3c2)CC1` (stereo not drawn) [BDH_32358602], the Inhibition percent was -0.32%.

For `COc1ccc(C2(C(=O)N3CCCC(Cc4cccc5ccncc45)CC3)CCOCC2)cc1` (stereo not drawn) [BDH_32359024], the Inhibition percent was 2.06%.

Regarding `Fc1cccc(COc2ccccc2CN2CCOCC(Cc3cn4ccnc4cn3)C2)c1` (stereo not drawn) [BDH_32359710], the Inhibition percent is -1.22%.

In the case of `COc1ccccc1[C@@H]1CN(Cc2cccc(Oc3ncccn3)c2)C[C@]12CCCCC(=O)N2` [BDH_32359781], the Inhibition percent is given as -0.97%.

On to `Cc1cc(Oc2ccccc2)nc(C2CCN(C(=O)C3(C)CCN(c4ncccn4)CC3)CC2)n1` [BDH_32359876], for which the Inhibition percent is on record as 3.25%.

As to `COc1ccc(C(=O)N2CCCC(Cc3ccc4ncccc4c3)C2)cc1NCc1ccncc1` (stereo not drawn) [BDH_32359951], the Inhibition percent was -4.50%.

As to `O=C1CCCN1CCOc1cccc(C(=O)N2CCCC(Cc3cccc4cnccc34)CC2)c1` (stereo not drawn) [BDH_32360253], the Inhibition percent was 1.74%.

For the compound `Cc1cccc(Oc2cncc(C3CCCN(C(=O)c4cccc(Cn5ccnc5C)c4)C3)n2)c1` (stereo not drawn) [BDH_32360361], the Inhibition percent was found to be 0.07%.

Turning to `Cc1nonc1COc1ccccc1C(=O)N1CCCC(Cc2nccn3cccc23)CC1` (stereo not drawn) [BDH_32360822], the Inhibition percent amounted to 2.59%.

`O=C(c1ccccc1CN1CCOCC1)N1C2CCC1CC(Cc1cncc3ccccc13)C2` (stereo not drawn) [BDH_32360830]: the Inhibition percent is -0.42%.

In the case of `Cn1cc(C(=O)Nc2cccc(C(=O)N3CCCC(Cc4ccnc5ccccc45)CC3)c2)cn1` (stereo not drawn) [BDH_32361062], the Inhibition percent is -0.32%.

On to `Cc1cc(Oc2ccc(F)cc2)nc(C2CCCN(C(=O)c3cccc(Cn4ccnc4)c3)C2)n1` (stereo not drawn) [BDH_32361331], for which the Inhibition percent amounted to 1.28%.

As for `Cc1cccc(Cc2cccc(C3CCCN(C(=O)c4ccnc(N5CCOCC5)c4)C3)n2)c1` (stereo not drawn) [BDH_32361750], the Inhibition percent is -1.55%.

With `CC1(C(=O)N2CCOCC(Cc3ccc4cnccc4c3)C2)CCN(CCc2ccccc2)CC1` (stereo not drawn) [BDH_32362344], the Inhibition percent is -0.71%.

Consider `CC1(C(=O)N2CCOCC(Cc3ccc4ccncc4c3)C2)CCN(CCc2ccccc2)CC1` (stereo not drawn) [BDH_32362347], for which the Inhibition percent was -4.04%.

Take `Cc1cccc(Cc2cccc(C3CCCN(C(=O)c4ccnc(-c5cnn(C)c5)c4)C3)n2)c1` (stereo not drawn) [BDH_32362596]: the Inhibition percent amounted to 2.04%.

Consider `O=C(c1cccc(Oc2ncccn2)c1)N1CC[C@H]2[C@H]1CCCCC(=O)N2Cc1ccccc1` [BDH_32363931], for which the Inhibition percent is -2.83%.

On to `Cc1c(C(=O)N2CCC(O)(CN3CCN(c4ccccc4)CC3)C2)cccc1N1CCOCC1` (stereo not drawn) [BDH_32364008], for which the Inhibition percent was -0.54%.

In the case of `Cc1nccn1Cc1ccccc1C(=O)N1CCCC(c2cncc(Oc3ccccc3)n2)C1` (stereo not drawn) [BDH_32364323], the Inhibition percent was -2.15%.

Consider `Cc1cc(Oc2ccc(F)cc2)nc(C2CCCCN2C(=O)c2ccnc(-c3cncnc3)c2)n1` (stereo not drawn) [BDH_32364851], for which the Inhibition percent is -4.83%.

Regarding `Cn1cc(-c2cccc(C(=O)N3CCC(c4cccc(Cc5ccc(F)cc5)n4)CC3)n2)cn1` [BDH_32365359], the Inhibition percent stood at 2.72%.

As for `Cn1cc(-c2cccc(C(=O)N3CCCC(c4cccc(Cc5ccc(F)cc5)n4)C3)n2)cn1` (stereo not drawn) [BDH_32365360], the Inhibition percent came out at 7.56%.

With `COc1cccc(Oc2cc(C)nc(C3CCCCN3C(=O)c3cccc(-n4cnnc4)c3)n2)c1` (stereo not drawn) [BDH_32365761], the Inhibition percent is listed as -5.24%.

Still in this assay, the particulars now being: primary screen of the Asinex library, sheet "Sargen output Asinex library", one well per compound, Batch Ref. 1.
As to `Cc1nonc1COc1ccccc1C(=O)N1CCCC(Cc2ccc3ccncc3c2)CC1` (stereo not drawn) [BDH_32355894], the Inhibition percent is reported as 5.62%.

`Cc1ccc(Oc2ncccc2C(=O)N2CCC(c3cccc(Cc4ccccc4)n3)CC2)cn1` [BDH_32356013]: the Inhibition percent is given as 10.27%.

Consider `Cc1cccc(Oc2cncc(C3CCCN(C(=O)c4ccnc(N5CCN(C)CC5)c4)C3)n2)c1` (stereo not drawn) [BDH_32358106], for which the Inhibition percent is 0.42%.

Turning to `CN(C)CC(=O)N1CCCC(C)(C(=O)N2CCC(c3cccc(Cc4ccccc4)n3)CC2)C1` (stereo not drawn) [BDH_32359557], the Inhibition percent turned out to be 2.74%.

As to `Cc1ccc(Oc2cccc(C3CN(C(=O)c4cccc(Cn5ccnc5)c4)CCO3)n2)cc1` (stereo not drawn) [BDH_32360064], the Inhibition percent was determined as 8.15%.

In the case of `CC1(C(=O)N2CCCC(Cc3cccc4ccncc34)CC2)CCN(C(=O)c2ccccc2)CC1` (stereo not drawn) [BDH_32360998], the Inhibition percent is -2.76%.

`COc1ccc(Oc2cncc(C3CCN(C(=O)C4(c5ccccc5)CCOCC4)CC3)n2)cc1` [BDH_32362557]: the Inhibition percent stood at 3.43%.

On to `O=C(c1ccccc1Cn1ccnc1)N1CCCC(c2cccc(Cc3ccc(F)cc3)n2)C1` (stereo not drawn) [BDH_32363926], for which the Inhibition percent is 1.46%.

For the compound `Cc1nc(N(C)C)cc(C2(C)CCCN(C(=O)c3ccc(Cl)c(N4CCOCC4)c3)C2)n1` (stereo not drawn) [BDH_32364491], the Inhibition percent is listed as -1.79%.

Consider `COc1ccccc1Oc1cccc(C2CCN(C(=O)c3ccnc(N4CCOCC4)c3)CC2)n1` [BDH_32364726], for which the Inhibition percent is listed as 2.70%.

For the compound `Cn1cc(-c2ccc(C(=O)N3CCCC(c4cccc(Cc5ccc(F)cc5)n4)C3)cn2)cn1` (stereo not drawn) [BDH_32365364], the Inhibition percent is given as 4.12%.

For the origin of these results see PMC9995496, “A screen for MeCP2-TBL1 interaction inhibitors using a luminescence-based assay” (Scientific Reports, 2023).
